PMC6100082, “Pyridine-Ureas as Potential Anticancer Agents: Synthesis and In Vitro Biological Evaluation” (Molecules : A Journal of Synthetic Chemistry and Natural …, 2018)

Legend:
Type in all cases: cell-based, human
[1] = tested on: DU-145; assay: NCI one-dose SRB assay (Prostate); conditions: for Growth Percent: DU-145, 1.00E-5 Molar; for inhibition at 10 µM: Homo sapiens, DU-145, 10 μM, read-out: Percentage growth inhibition (GI%)
Protocol: (§1) The structures of all the newly prepared pyridine-ureas 8a–n were submitted to the National Cancer Institute (NCI) Developmental Therapeutic Program. Eight compounds 8b, 8d, 8e, 8i, 8j and 8l–n were selected to be examined for their in vitro growth inhibitory activity. The anticancer assays were carried out according to the protocol of the Drug Evaluation Branch, NCI, Bethesda. The selected pyridine-ureas were tested at one dose primary anticancer assay against a panel of approximately 58 cancer lines (concentration 10^−5 M). The tested human cancer cell lines emerged from nine different cancer subtypes: leukemia, colon, melanoma, ovarian, lung, CNS, renal, breast and prostate cancers. The sulforhodamine B (SRB) protein assay was adopted to estimate the cell viability and growth. The results were reported as mean-graph of the percentage growth of the treated cells, and presented as percentage growth inhibition (GI%) caused by the test compounds (Table 2).
(§2) The anticancer assays were performed in accordance with the protocol of the Drug Evaluation Branch, NCI, Bethesda. A 48 h drug exposure protocol was used and sulforhodamine B (SRB) protein assay was applied to estimate the cell viability and growth, as reported earlier.

[2] = tested on: PC-3; assay: NCI one-dose SRB assay (Prostate); conditions: for inhibition at 10 µM: Homo sapiens, PC-3, 10 μM, read-out: Percentage growth inhibition (GI%); for Growth Percent: PC-3, 1.00E-5 Molar
Protocol: as §1, §2

[3] = tested on: NCI 58 cell line panel; assay: NCI one-dose SRB assay, whole panel / subpanel summary; conditions: for inhibition at 10 µM: Homo sapiens, one dose, read-out: mean inhibition (mean % growth inhibition over NCI 58 cell line panel); for Mean Growth Percent: One Dose Mean Graph, 1.00E-5 Molar
Protocol: as §1, §2

[4] = tested on: K-562; assay: NCI one-dose SRB assay (Leukemia); conditions: for inhibition at 10 µM: Homo sapiens, K562, K-562, 10 μM, read-out: Percentage growth inhibition (GI%); for Growth Percent: K-562, 1.00E-5 Molar
Protocol: as §1, §2

[5] = tested on: HL-60(TB); assay: NCI one-dose SRB assay (Leukemia); conditions: for Growth Percent: 1.00E-5 Molar; for inhibition at 10 µM: Homo sapiens, read-out: Percentage growth inhibition (GI%)
Protocol: as §1, §2

[6] = tested on: MOLT-4; assay: NCI one-dose SRB assay (Leukemia); conditions: for inhibition at 10 µM: Homo sapiens, MOLT-4, 10 μM, read-out: Percentage growth inhibition (GI%); for Growth Percent: MOLT-4, 1.00E-5 Molar
Protocol: as §1, §2

[7] = tested on: CCRF-CEM; assay: NCI one-dose SRB assay (Leukemia); conditions: for Growth Percent: 1.00E-5 Molar; for inhibition at 10 µM: Homo sapiens, read-out: Percentage growth inhibition (GI%)
Protocol: as §1, §2

[8] = tested on: RPMI-8226; assay: NCI one-dose SRB assay (Leukemia); conditions: for inhibition at 10 µM: Homo sapiens, RPMI-8226, 10 μM, read-out: Percentage growth inhibition (GI%); for Growth Percent: RPMI-8226, 1.00E-5 Molar
Protocol: as §1, §2

[9] = tested on: SR; assay: NCI one-dose SRB assay (Leukemia); conditions: for Growth Percent: 1.00E-5 Molar; for inhibition at 10 µM: Homo sapiens, read-out: Percentage growth inhibition (GI%)
Protocol: as §1, §2

[10] = tested on: TK-10; assay: NCI one-dose SRB assay (Renal Cancer); conditions: for inhibition at 10 µM: Homo sapiens, TK-10, 10 μM, read-out: Percentage growth inhibition (GI%); for Growth Percent: TK-10, 1.00E-5 Molar
Protocol: as §1, §2

[11] = tested on: 786-0; assay: NCI one-dose SRB assay (Renal Cancer); conditions: for Growth Percent: 786-0, 1.00E-5 Molar; for inhibition at 10 µM: Homo sapiens, 786-0, 10 μM, read-out: Percentage growth inhibition (GI%)
Protocol: as §1, §2

[12] = tested on: A498; assay: NCI one-dose SRB assay (Renal Cancer); conditions: for Growth Percent: A498, 1.00E-5 Molar; for inhibition at 10 µM: Homo sapiens, A498, 10 μM, read-out: Percentage growth inhibition (GI%)
Protocol: as §1, §2

[13] = tested on: RXF 393; assay: NCI one-dose SRB assay (Renal Cancer); conditions: for inhibition at 10 µM: Homo sapiens, RXF 393, 10 μM, read-out: Percentage growth inhibition (GI%); for Growth Percent: RXF 393, 1.00E-5 Molar
Protocol: as §1, §2

[14] = tested on: SN12C; assay: NCI one-dose SRB assay (Renal Cancer); conditions: for Growth Percent: 1.00E-5 Molar; for inhibition at 10 µM: Homo sapiens, read-out: Percentage growth inhibition (GI%)
Protocol: as §1, §2

[15] = tested on: UO-31; assay: NCI one-dose SRB assay (Renal Cancer); conditions: for inhibition at 10 µM: Homo sapiens, UO-31, 10 μM, read-out: Percentage growth inhibition (GI%); for Growth Percent: UO-31, 1.00E-5 Molar
Protocol: as §1, §2

[16] = tested on: HCC-2998; assay: NCI one-dose SRB assay (Colon Cancer); conditions: for Growth Percent: HCC-2998, 1.00E-5 Molar; for inhibition at 10 µM: Homo sapiens, HCC-2998, 10 μM, read-out: Percentage growth inhibition (GI%)
Protocol: as §1, §2

[17] = tested on: KM12; assay: NCI one-dose SRB assay (Colon Cancer); conditions: for inhibition at 10 µM: Homo sapiens, KM12, 10 μM, read-out: Percentage growth inhibition (GI%); for Growth Percent: KM12, 1.00E-5 Molar
Protocol: as §1, §2

[18] = tested on: HT29; assay: NCI one-dose SRB assay (Colon Cancer); conditions: for Growth Percent: HT29, 1.00E-5 Molar; for inhibition at 10 µM: Homo sapiens, HT-29, HT29, 10 μM, read-out: Percentage growth inhibition (GI%)
Protocol: as §1, §2

[19] = tested on: SW-620; assay: NCI one-dose SRB assay (Colon Cancer); conditions: for inhibition at 10 µM: Homo sapiens, SW-620, 10 μM, read-out: Percentage growth inhibition (GI%); for Growth Percent: SW-620, 1.00E-5 Molar
Protocol: as §1, §2

[20] = tested on: COLO 205; assay: NCI one-dose SRB assay (Colon Cancer); conditions: for Growth Percent: COLO 205, 1.00E-5 Molar; for inhibition at 10 µM: Homo sapiens, COLO 205, 10 μM, read-out: Percentage growth inhibition (GI%)
Protocol: as §1, §2

[21] = tested on: HCT-116; assay: NCI one-dose SRB assay (Colon Cancer); conditions: for Growth Percent: HCT-116, 1.00E-5 Molar; for inhibition at 10 µM: Homo sapiens, HCT-116, 10 μM, read-out: Percentage growth inhibition (GI%)
Protocol: as §1, §2

[22] = tested on: HCT-15; assay: NCI one-dose SRB assay (Colon Cancer); conditions: for Growth Percent: HCT-15, 1.00E-5 Molar; for inhibition at 10 µM: Homo sapiens, HCT-15, 10 μM, read-out: Percentage growth inhibition (GI%)
Protocol: as §1, §2

[23] = tested on: SF-268; assay: NCI one-dose SRB assay (CNS Cancer); conditions: for inhibition at 10 µM: Homo sapiens, SF-268, 10 μM, read-out: Percentage growth inhibition (GI%); for Growth Percent: SF-268, 1.00E-5 Molar
Protocol: as §1, §2

[24] = tested on: SNB-19; assay: NCI one-dose SRB assay (CNS Cancer); conditions: for inhibition at 10 µM: Homo sapiens, SNB-19, 10 μM, read-out: Percentage growth inhibition (GI%); for Growth Percent: SNB-19, 1.00E-5 Molar
Protocol: as §1, §2

[25] = tested on: SF-295; assay: NCI one-dose SRB assay (CNS Cancer); conditions: for inhibition at 10 µM: Homo sapiens, SF-295, 10 μM, read-out: Percentage growth inhibition (GI%); for Growth Percent: SF-295, 1.00E-5 Molar
Protocol: as §1, §2

[26] = tested on: SF-539; assay: NCI one-dose SRB assay (CNS Cancer); conditions: for inhibition at 10 µM: Homo sapiens, SF-539, 10 μM, read-out: Percentage growth inhibition (GI%); for Growth Percent: SF-539, 1.00E-5 Molar
Protocol: as §1, §2

[27] = tested on: U251; assay: NCI one-dose SRB assay (CNS Cancer); conditions: for inhibition at 10 µM: Homo sapiens, U-251, U251, 10 μM, read-out: Percentage growth inhibition (GI%); for Growth Percent: U251, 1.00E-5 Molar
Protocol: as §1, §2

[28] = tested on: SNB-75; assay: NCI one-dose SRB assay (CNS Cancer); conditions: for inhibition at 10 µM: Homo sapiens, SNB-75, 10 μM, read-out: Percentage growth inhibition (GI%); for Growth Percent: SNB-75, 1.00E-5 Molar
Protocol: as §1, §2

COc1cccc(NC(=O)Nc2ccc(-c3ccc(OC)c(OC)c3)nc2C)c1 [Compound 8m, 1-(6-(3,4-Dimethoxyphenyl)-2-methylpyridin-3-yl)-3-(3-methoxyphenyl) Urea]
Growth Percent [1]: 99.53%
inhibition at 10 µM [1]: < 10%
inhibition at 10 µM [2]: 41%
Growth Percent [2]: 59.08%
inhibition at 10 µM [3]: 8%
Mean Growth Percent [3]: 92.83%
inhibition at 10 µM [4]: 22%
Growth Percent [4]: 78.49%
Growth Percent [5]: 73.33%
inhibition at 10 µM [5]: 27%
inhibition at 10 µM [6]: 35%
Growth Percent [6]: 65.34%
Growth Percent [7]: 89.11%
inhibition at 10 µM [7]: 11%
inhibition at 10 µM [8]: 26%
Growth Percent [8]: 74.18%
Growth Percent [9]: 82.12%
inhibition at 10 µM [9]: 18%
inhibition at 10 µM [10]: < 10%
Growth Percent [10]: 96.16%
Growth Percent [11]: 92.27%
inhibition at 10 µM [11]: < 10%
Growth Percent [12]: 85.18%
inhibition at 10 µM [12]: 15%
inhibition at 10 µM [13]: < 10%
Growth Percent [13]: 108.45%
Growth Percent [14]: 93.61%
inhibition at 10 µM [14]: < 10%
inhibition at 10 µM [15]: 20%
Growth Percent [15]: 80.45%
Growth Percent [16]: 97.15%
inhibition at 10 µM [16]: < 10%
inhibition at 10 µM [17]: < 10%
Growth Percent [17]: 96.43%
Growth Percent [18]: 75.95%
inhibition at 10 µM [18]: 25%
inhibition at 10 µM [19]: < 10%
Growth Percent [19]: 101.68%
Growth Percent [20]: 119.56%
inhibition at 10 µM [20]: < 10%
Growth Percent [21]: 78.84%
inhibition at 10 µM [21]: 22%
Growth Percent [22]: 91.11%
inhibition at 10 µM [22]: < 10%
inhibition at 10 µM [23]: < 10%
Growth Percent [23]: 94.56%
inhibition at 10 µM [24]: < 10%
Growth Percent [24]: 115.50%
inhibition at 10 µM [25]: < 10%
Growth Percent [25]: 99.68%
inhibition at 10 µM [26]: < 10%
Growth Percent [26]: 93.97%
inhibition at 10 µM [27]: < 10%
Growth Percent [27]: 94.15%
inhibition at 10 µM [28]: < 10%
Growth Percent [28]: 104.39%

COc1ccc(-c2ccc(NC(=O)Nc3cccc(C(F)(F)F)c3)c(C)n2)cc1 [Compound 8b, 1-(6-(4-Methoxyphenyl)-2-methylpyridin-3-yl)-3-(3-(trifluoromethyl)phenyl) Urea]
Growth Percent [1]: 68.79%
inhibition at 10 µM [1]: 32%
inhibition at 10 µM [2]: 76%
Growth Percent [2]: 24.40%
inhibition at 10 µM [3]: 43%
Mean Growth Percent [3]: 57.47%
inhibition at 10 µM [4]: 68%
Growth Percent [4]: 32.55%
Growth Percent [5]: 49.75%
inhibition at 10 µM [5]: 51%
inhibition at 10 µM [6]: 67%
Growth Percent [6]: 33.74%
Growth Percent [7]: 42.94%
inhibition at 10 µM [7]: 58%
inhibition at 10 µM [8]: 78%
Growth Percent [8]: 22.58%
Growth Percent [9]: 36.30%
inhibition at 10 µM [9]: 64%
inhibition at 10 µM [10]: 24%
Growth Percent [10]: 76.66%
Growth Percent [11]: 77.34%
inhibition at 10 µM [11]: 23%
Growth Percent [12]: 52.08%
inhibition at 10 µM [12]: 48%
inhibition at 10 µM [13]: 15%
Growth Percent [13]: 85.91%
Growth Percent [14]: 67.99%
inhibition at 10 µM [14]: 33%
inhibition at 10 µM [15]: 45%
Growth Percent [15]: 55.08%
Growth Percent [16]: 81.09%
inhibition at 10 µM [16]: 19%
inhibition at 10 µM [17]: 55%
Growth Percent [17]: 45.61%
Growth Percent [18]: 47.65%
inhibition at 10 µM [18]: 53%
inhibition at 10 µM [19]: 19%
Growth Percent [19]: 81.01%
Growth Percent [20]: 84.52%
inhibition at 10 µM [20]: 16%
Growth Percent [21]: 26.93%
inhibition at 10 µM [21]: 74%
Growth Percent [22]: 40.87%
inhibition at 10 µM [22]: 60%
inhibition at 10 µM [23]: 26%
Growth Percent [23]: 74.51%
inhibition at 10 µM [24]: 33%
Growth Percent [24]: 67.81%
inhibition at 10 µM [25]: 53%
Growth Percent [25]: 47.56%
inhibition at 10 µM [26]: 20%
Growth Percent [26]: 80.84%
inhibition at 10 µM [27]: 50%
Growth Percent [27]: 50.16%
inhibition at 10 µM [28]: 23%
Growth Percent [28]: 77.64%
